Experiments:
cancer cell lines = details: cited from earlier work
[1] = system: HT29 human colon adenocarcinoma xenografts; details: in combination with irinotecan; cited from earlier work
[2] = system: HCT-116 KRAS mutant xenograft; assay: HCT-116 KRAS-mutant CRC xenograft model; type: in vivo
Source text: FIG. 6A and FIG. 6B are graphs showing anti-tumor activity of onvansertib in combination with irinotecan and 5-FU in the HCT-116 KRAS-mutant CRC xenograft model.
(§1) Onvansertib, an oral and highly-selective PLK1 inhibitor, is a promising therapeutic option for KRAS-mutated CRC. PLK1, a key regulator of mitosis, is overexpressed in CRC and associated with poor clinical parameters.

[3] = system: advanced/metastatic solid tumors; details: evaluable patients; cited from earlier work
[4] = system: disseminated model of AML; details: in combination with cytarabine; cited from earlier work
DLD-1 cells = assay: Cell viability (CellTiterGlo) in KRAS mutant and WT isogenic CRC cells; type: cell-based; details: 72h treatment
Source text: FIG. 5 is a graph showing cell viability in onvansertib-treated KRAS mutant and WT isogenic CRC cells.
as §1

[5] = system: mutant KRAS in cell free DNA in plasma; assay: Phase 1b/2 mCRC study, plasma KRAS mutant by ddPCR; type: in vivo, human; details: with FOLFIRI and bevacizumab
Method: Participants must have histologically confirmed metastatic and unresectable disease, and previously failed treatment or be intolerant to fluoropyrimidine and oxaliplatin with or without bevacizumab.
KRAS in cell free DNA in plasma from patients was periodically quantified using droplet digital PCR (BioRad), where percentage of KRAS that is mutant KRAS was determined. The lower limit of sensitivity of this assay was 0.001% mutant KRAS.
KRAS MAF was measured by digital droplet PCR (ddPCR) at baseline (Cycle 1 Day 1, pre-dose) and on-treatment (Day 1 of Cycles 2 to 9). […] Clinical responses were observed across different KRAS variants, including the 3 most common in CRC. […] In addition, patients with PR and SD tended to have lower on-treatment KRAS MAF than patients with early PD.

[6] = system: cell lines, both from solid as well as hematologic tumors; details: large number of cell lines; cited from earlier work
PLK1 = PLK1 (Homo sapiens, UniProt P53350); details: including other PLK members; cited from earlier work
[7] = cited from earlier work
[8] = cited from earlier work; remark: listed apart in the source
xenograft tumor = details: well tolerated doses, oral administration; cited from earlier work

PLK1, sequence (P53350 whole entry): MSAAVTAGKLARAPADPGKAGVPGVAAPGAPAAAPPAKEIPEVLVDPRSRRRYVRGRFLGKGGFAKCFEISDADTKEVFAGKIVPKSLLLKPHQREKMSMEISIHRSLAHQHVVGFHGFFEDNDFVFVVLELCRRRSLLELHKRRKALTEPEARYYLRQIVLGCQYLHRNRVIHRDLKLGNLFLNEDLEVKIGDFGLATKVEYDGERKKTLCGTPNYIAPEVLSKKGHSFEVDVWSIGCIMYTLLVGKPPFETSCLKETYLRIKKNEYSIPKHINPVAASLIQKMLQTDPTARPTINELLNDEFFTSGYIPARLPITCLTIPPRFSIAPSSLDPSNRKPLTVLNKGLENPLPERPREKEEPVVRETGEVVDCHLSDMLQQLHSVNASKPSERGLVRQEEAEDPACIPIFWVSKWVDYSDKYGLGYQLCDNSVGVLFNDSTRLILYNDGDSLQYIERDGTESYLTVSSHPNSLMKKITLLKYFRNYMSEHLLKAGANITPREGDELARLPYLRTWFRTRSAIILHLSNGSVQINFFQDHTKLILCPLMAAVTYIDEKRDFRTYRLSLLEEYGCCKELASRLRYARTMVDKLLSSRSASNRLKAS

CN1CCN(c2ccc(OC(F)(F)F)c(Nc3ncc4c(n3)-c3c(c(C(N)=O)nn3CCO)CC4)c2)CC1 [onvansertib, 1-(2-hydroxyethyl)-8-{[5-(4-methylpiperazin-1-yl)-2-(trifluoromethoxy)phenyl]amino}-4,5-dihydro-1H-pyrazolo[4,3-h] quinazoline-3-carboxamide]
effect on cell cycle (cancer cell lines): mitotic cell-cycle arrest followed by apoptosis
tumor regression compared to each agent alone [1]: enhanced tumor regression
combination effect ([2]; in combination with irinotecan and 5-FU): synergy
anti-tumor activity ([2]; single agent): potent anti-tumor activity
patients with stable disease [3]: 5 of 16
survival of animals [4]: prolonged survival
mitotic arrest and cell death, mutant KRAS vs wild-type cells (DLD-1 cells): more profound mitotic arrest and cell death in mutant KRAS cells
patients with KRAS undetectable within the 1st cycle ([5]; 12 mg/m^2, 4 patients detectable at baseline): 4 patients
patients with KRAS undetectable within the 1st cycle ([5]; 15 mg/m^2, 2 patients detectable at baseline): 1 patients
change of KRAS mutant variants within the first cycle ([5]; five variants in 6 patients, 12 and 15 mg/m^2): decreased
potency in proliferation assays [6]: low nanomolar activity
specificity for PLK1 among a panel of 296 kinases (PLK1): high specificity
primary dose-limiting toxicities ([7]; in vivo): neutropenia and thrombocytopenia
recovery of hematologic toxicities ([7]; reversible): ≤ 3 weeks
recommended phase 2 dose ([7]; single agent): 24 mg/m^2
half-life ([8]; in vivo): about 24 hours
oral bioavailability ([8]; rodent and nonrodent species): good oral bioavailability
xenograft tumor growth (xenograft tumor): inhibits xenograft tumor growth
